Patent US10988477B2 (Merck Patent GmbH, priority 2018, dated 2021)

Assays:
GCN2 kinase = GCN2 kinase (Homo sapiens, UniProt Q9P2K8); test: GCN2 enzyme inhibition assay (Transcreener ADP2 fluorescence polarization); assay type: biochemical; conditions: compounds of Formula II; 280 μM ATP, 4 nM GCN2 kinase
How it was run: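 Run at 25 °C in 25 mM Tris-HCl pH 7.5, 50 mM NaCl, 10 mM MgCl2, 1 mM DTT with 4 nM GCN2, 280 μM ATP and 200 μM (RS)7 peptide; compound (0–8 μM final) preincubated 10 min, reaction 1 h. ADP read by antibody/tracer FP; IC50 and Ki(app) from tight-binding fit.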

[1] = target: intracellular GCN2 (phosphorylation of the GCN2 substrate eIF2α) (Homo sapiens, UniProt Q9P2K8); test: GCN2 cellular inhibition assay (AlphaScreen SureFire P-eIF2α Ser51, borrelidin-treated U2OS cells); assay type: cell-based; conditions: compounds of Formula II; biomarker assay, phosphorylated eIF2α Ser51 in borrelidin-treated U2OS cells
intracellular GCN2 (phosphorylation of the GCN2 substrate eIF2α), sequence (Q9P2K8 whole entry): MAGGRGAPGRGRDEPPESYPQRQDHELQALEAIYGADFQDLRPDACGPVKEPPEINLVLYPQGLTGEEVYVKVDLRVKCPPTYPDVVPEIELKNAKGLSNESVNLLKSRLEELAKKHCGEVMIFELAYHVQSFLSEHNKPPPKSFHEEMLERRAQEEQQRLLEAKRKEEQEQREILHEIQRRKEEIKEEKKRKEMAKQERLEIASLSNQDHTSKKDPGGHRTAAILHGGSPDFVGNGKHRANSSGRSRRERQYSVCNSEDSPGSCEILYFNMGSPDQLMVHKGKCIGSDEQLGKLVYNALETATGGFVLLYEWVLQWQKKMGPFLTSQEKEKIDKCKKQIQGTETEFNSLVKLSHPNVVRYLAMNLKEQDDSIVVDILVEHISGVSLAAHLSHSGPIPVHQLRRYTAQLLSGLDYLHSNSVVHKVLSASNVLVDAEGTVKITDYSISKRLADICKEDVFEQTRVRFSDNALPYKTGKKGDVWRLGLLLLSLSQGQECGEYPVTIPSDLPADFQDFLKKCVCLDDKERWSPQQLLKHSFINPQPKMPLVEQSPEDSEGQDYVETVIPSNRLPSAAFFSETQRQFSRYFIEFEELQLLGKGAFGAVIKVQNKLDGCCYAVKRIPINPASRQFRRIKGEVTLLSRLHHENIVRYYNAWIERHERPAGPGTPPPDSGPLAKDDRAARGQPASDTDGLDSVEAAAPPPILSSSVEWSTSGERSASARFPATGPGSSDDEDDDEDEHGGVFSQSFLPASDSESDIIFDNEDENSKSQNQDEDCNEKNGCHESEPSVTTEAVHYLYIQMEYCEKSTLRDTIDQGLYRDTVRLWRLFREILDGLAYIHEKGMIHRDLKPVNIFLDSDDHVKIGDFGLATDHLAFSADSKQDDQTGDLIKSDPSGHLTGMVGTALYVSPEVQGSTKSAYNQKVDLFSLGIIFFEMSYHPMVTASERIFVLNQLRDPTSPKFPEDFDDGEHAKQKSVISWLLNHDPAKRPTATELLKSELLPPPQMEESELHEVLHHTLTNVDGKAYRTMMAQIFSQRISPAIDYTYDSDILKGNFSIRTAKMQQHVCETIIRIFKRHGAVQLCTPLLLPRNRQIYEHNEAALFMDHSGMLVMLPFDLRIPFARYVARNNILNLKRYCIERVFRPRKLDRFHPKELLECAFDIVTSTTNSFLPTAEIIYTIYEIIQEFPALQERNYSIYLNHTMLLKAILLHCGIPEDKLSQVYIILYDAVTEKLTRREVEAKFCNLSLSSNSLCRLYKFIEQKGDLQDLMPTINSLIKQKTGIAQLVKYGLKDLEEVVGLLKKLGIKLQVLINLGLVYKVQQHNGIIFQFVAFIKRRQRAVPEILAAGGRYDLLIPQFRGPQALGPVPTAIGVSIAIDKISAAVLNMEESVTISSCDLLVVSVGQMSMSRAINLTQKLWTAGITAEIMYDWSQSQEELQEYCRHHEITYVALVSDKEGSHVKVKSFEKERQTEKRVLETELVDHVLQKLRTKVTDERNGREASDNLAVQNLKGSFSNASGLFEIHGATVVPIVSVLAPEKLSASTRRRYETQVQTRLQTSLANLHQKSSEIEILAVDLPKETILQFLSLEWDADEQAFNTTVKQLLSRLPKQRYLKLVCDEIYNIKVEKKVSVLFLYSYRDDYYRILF
How it was run: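 U2OS cells, adhered overnight, received compounds in 4-fold serial dilutions from 40 μM final, then 10 μM borrelidin for 1 h at 37 °C. Lysates were read by AlphaScreen for phospho-eIF2α Ser51; percent inhibition was set against borrelidin-only wells.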

GCN2 kinase, sequence (Q9P2K8 whole entry): as above

Ki (GCN2 kinase) [nM]	IC50 [1] [nM]	SMILES
< 10	500 to 5000	CS(=O)(=O)NCC1CC(O)CN(c2cc(-c3cnc4ccc(C(F)F)nn34)ncn2)C1 (stereo not drawn) [II-13, N-((1-(6-(6-(Difluoromethyl)imidazo[1,2-b]pyridazin-3-yl)pyrimidin-4-yl)-5-hydroxypiperidin-3-yl)methyl)methanesulfonamide]
10 to 1000	> 5000	CS(=O)(=O)N1CCCC(c2cc(-c3cnc4ccc(C(F)F)nn34)ncn2)CC1 (stereo not drawn) [II-14, 6-(Difluoromethyl)-3-(6-(1-(methylsulfonyl)azepan-4-yl)pyrimidin-4-yl)imidazo[1,2-b]pyridazine]
10 to 1000	> 5000	O=C1CCN(c2cc(-c3cnc4ccc(C(F)F)nn34)ncn2)CCN1 [II-15, 1-(6-(6-(Difluoromethyl)imidazo[1,2-b]pyridazin-3-yl)pyrimidin-4-yl)-1,4-diazepan-5-one]
10 to 1000	> 5000	NC(=O)C1CN(c2cc(-c3cnc4ccc(C(F)F)nn34)ncn2)c2ccccc21 (stereo not drawn) [II-16, 1-(6-(6-(Difluoromethyl)imidazo[1,2-b]pyridazin-3-yl)pyrimidin-4-yl)indoline-3-carboxamide]
10 to 1000	500 to 5000	CS(=O)(=O)NCCC1CCN(c2cc(-c3cnc4ccc(C(F)F)nn34)ncn2)C1 (stereo not drawn) [II-17, N-(2-(1-(6-(6-(Difluoromethyl)imidazo[1,2-b]pyridazin-3-yl)pyrimidin-4-yl)pyrrolidin-3-yl)ethyl)methanesulfonamide]
< 10	< 500	CC1CN(c2cc(-c3cnc4ccc(C(F)F)nn34)ncn2)CC1CNS(C)(=O)=O (stereo not drawn) [II-18, N-((1-(6-(6-(Difluoromethyl)imidazo[1,2-b]pyridazin-3-yl)pyrimidin-4-yl)-4-methylpyrrolidin-3-yl)methyl)methanesulfonamide]
10 to 1000	500 to 5000	CS(=O)(=O)C1CCCN(c2cc(-c3cnc4ccc(C(F)F)nn34)ncn2)C1 (stereo not drawn) [II-19, 6-(Difluoromethyl)-3-(6-(3-(methylsulfonyl)piperidin-1-yl)pyrimidin-4-yl)imidazo[1,2-b]pyridazine]
10 to 1000	> 5000	FC(F)c1ccc2ncc(-c3cc(N4CCc5ccccc54)ncn3)n2n1 [II-20, 6-(Difluoromethyl)-3-(6-(indolin-1-yl)pyrimidin-4-yl)imidazo[1,2-b]pyridazine]
10 to 1000	> 5000	CS(=O)(=O)N1CCCC(c2cc(-c3cnc4ccc(C(F)F)nn34)ncn2)C1 (stereo not drawn) [II-21, 6-(Difluoromethyl)-3-(6-(1-(methylsulfonyl)piperidin-3-yl)pyrimidin-4-yl)imidazo[1,2-b]pyridazine]
10 to 1000	> 5000	CS(=O)(=O)N1CCCN(c2cc(-c3cnc4ccc(C(F)F)nn34)ncn2)CC1 [II-22, 6-(Difluoromethyl)-3-(6-(4-(methylsulfonyl)-1,4-diazepan-1-yl)pyrimidin-4-yl)imidazo[1,2-b]pyridazine]
10 to 1000	> 5000	NS(=O)(=O)N1CCCN(c2cc(-c3cnc4ccc(C(F)F)nn34)ncn2)CC1 [II-24, 4-(6-(6-(Difluoromethyl)imidazo[1,2-b]pyridazin-3-yl)pyrimidin-4-yl)-1,4-diazepane-1-sulfonamide]
10 to 1000	> 5000	CS(=O)(=O)NC[C@@H]1CN(c2cc(-c3cnc4ccc(C(F)F)nn34)ncn2)CC(=O)N1 [II-25, (S)—N-((4-(6-(6-(Difluoromethyl)imidazo[1,2-b]pyridazin-3-yl)pyrimidin-4-yl)-6-oxopiperazin-2-yl)methyl)methanesulfonamide]
10 to 1000	> 5000	CN=S(C)(=O)CC1CCCN(c2cc(-c3cnc4ccc(C(F)F)nn34)ncn2)C1 (stereo not drawn) [II-26, [1-[6-[6-(Difluoromethyl)imidazo[1,2-b]pyridazin-3-yl]pyrimidin-4-yl]-3-piperidyl]methyl-methyl-methylimino-oxo-sulfane]
10 to 1000	> 5000	Clc1ccc2ncc(-c3ccnc(-c4ccccc4)c3)n2n1 [II-27, 6-Chloro-3-(2-phenylpyridin-4-yl)imidazo[1,2-b]pyridazine]
10 to 1000	< 500	FC(F)c1ccc2ncc(-c3cc(N4Cc5ccncc5C4)ncn3)n2n1 [II-28, 3-(6-(1H-Pyrrolo[3,4-c]pyridin-2(3H)-yl)pyrimidin-4-yl)-6-(difluoromethyl)imidazo[1,2-b]pyridazine]
10 to 1000	> 5000	FC(F)c1ccc2ncc(-c3cc(N4CCOC(Cn5cnnc5)C4)ncn3)n2n1 (stereo not drawn) [II-29, 2-((4H-1,2,4-Triazol-4-yl)methyl)-4-(6-(6-(difluoromethyl)imidazo[1,2-b]pyridazin-3-yl)pyrimidin-4-yl)morpholine]
10 to 1000	500 to 5000	N#CCC(=O)N1CCCC(c2cc(-c3cnc4ccc(C(F)F)nn34)ncn2)C1 (stereo not drawn) [II-30, 3-(3-(6-(6-(Difluoromethyl)imidazo[1,2-b]pyridazin-3-yl)pyrimidin-4-yl)piperidin-1-yl)-3-oxopropanenitrile]
< 10	< 500	CC1CN(c2cc(-c3cnc4ccc(C(F)F)nn34)ncn2)CC(CNS(C)(=O)=O)O1 (stereo not drawn) [II-31, N-((4-(6-(6-(Difluoromethyl)imidazo[1,2-b]pyridazin-3-yl)pyrimidin-4-yl)-6-methylmorpholin-2-yl)methyl)methanesulfonamide]
< 10	< 500	CC1CN(c2cc(-c3cnc4ccc(C(F)F)nn34)ncn2)CC(CNS(C)(=O)=O)O1 (stereo not drawn) [II-32, N-((4-(6-(6-(Difluoromethyl)imidazo[1,2-b]pyridazin-3-yl)pyrimidin-4-yl)-6-methylmorpholin-2-yl)methyl)methanesulfonamide]
< 10	< 500	CC1CN(c2cc(-c3cnc4ccc(C(F)F)nn34)ncn2)CC(CNS(C)(=O)=O)O1 (stereo not drawn) [II-33, N-((4-(6-(6-(Difluoromethyl)imidazo[1,2-b]pyridazin-3-yl)pyrimidin-4-yl)-6-methylmorpholin-2-yl)methyl)methanesulfonamide]
< 10	< 500	CS(=O)(=O)NC[C@@H]1CN(c2cc(-c3cnc4ccc(C(F)F)nn34)ncn2)CCO1 [II-34, (S)—N-((4-(6-(6-(Difluoromethyl)imidazo[1,2-b]pyridazin-3-yl)pyrimidin-4-yl)morpholin-2-yl)methyl)methanesulfonamide]
10 to 1000	500 to 5000	CC1CN(c2cc(-c3cnc4ccc(C(F)F)nn34)ncn2)CC(CNS(C)(=O)=O)C1(F)F (stereo not drawn) [II-35, N-((1-(6-(6-(Difluoromethyl)imidazo[1,2-b]pyridazin-3-yl)pyrimidin-4-yl)-4,4-difluoro-5-methylpiperidin-3-yl)methyl)methanesulfonamide]
< 10	< 500	C[C@H]1CN(c2cc(-c3cnc4ccc(C(F)F)nn34)ncn2)C[C@@H](CNS(C)(=O)=O)C1(F)F [II-36, N-[[(3S,5S)-1-[6-[6-(Difluoromethyl)imidazo[1,2-b]pyridazin-3-yl]pyrimidin-4-yl]-4,4-difluoro-5-methyl-3-piperidyl]methyl]methanesulfonamide]
10 to 1000	500 to 5000	CS(=O)(=O)N1CCN2CCN(c3cc(-c4cnc5ccc(C(F)F)nn45)ccn3)CC2C1 (stereo not drawn) [II-37, 2-(4-(6-(Difluoromethyl)imidazo[1,2-b]pyridazin-3-yl)pyridin-2-yl)-8-(methylsulfonyl)octahydro-1H-pyrazino[1,2-a]pyrazine]
